# Data as given in US20230339997A1, “CLASS OF PLATINUM COMPOUNDS FOR TREATING CANCER, AND METHOD FOR PREPARATION THEREOF” (SHANGHAI HAIJU BIOLOGICAL TECHNOLOGY CO., LTD., priority 2020, published 2023).
# “Also recorded” adds a separate entry of the source.
# Assays:
# [1] = In vitro water solubility experiment; settings: for solubility at 30 min / solubility: 25 °C, water, thermodynamic from solid; for improvement of water solubility compared with carboplatin: compared with the marketed drug carboplatin
# Protocol: In Vitro Water Solubility Experiment of Example
# At room temperature of 25° C., the test sample that had been ground into a fine powder was weighed accurately, and shaken vigorously for 30 seconds every 5 minutes in a certain volume of distilled water; and the dissolution of each test sample was observed within 30 minutes. If no visible solute particles were visible, the sample was considered to be completely dissolved.
# [2] = test system: S180 sarcoma; assay: In vivo tumor inhibition experiment, transplanted tumor S180 in mice; set-up: species or system Kunming mice; settings: for Tumor inhibition rate % / Tumor weight (g) X ± SD: S180 sarcoma mice, dl, 4, killed on eighth day
# Protocol: In Vivo Tumor Inhibition Experiment of Example
# The inhibitory effects of example S47 and example S70 of the present disclosure on animal transplanted tumor S180 were tested.
# Kunming mice, ♀, 22±1 g, were purchased from Shanghai Slac Laboratory Animal Co., Ltd. Certificate number: SCXK (Shanghai) 2013-0010-02. Feeding environment: SPF level. Example S47, example S70 and carboplatin, a positive control drug, were prepared with 5% glucose to the required concentration. Mice were subcutaneously inoculated with S180 sarcoma cells, and the drug administration was started on the next day of inoculation. The mice were killed on the eighth day, and the tumor was weighed and the tumor inhibition rate was calculated.
# Tumor inhibition rate=(tumor weight in the control group−tumor weight in the treatment group)/tumor weight in the control group×100
# [3] = background, studies have shown; cited from earlier work
smiles,measurement,setting,value
N=C(N)NCCC[C@@H]1NC(=O)[C@@H](CCCCNC(=O)CCOCCOCCOCCOCCNC(=O)CC[C@H](NC(=O)CCSC2CC(=O)N(CCCCCC(=O)NN=C3CC4(C3)C(=O)[O][Pt]([NH2])([NH2])[O]C4=O)C2=O)C(=O)NCCOCCOCCOCCOCCC(=O)NCCCC[C@H]2NC(=O)[C@@H](Cc3ccccc3)NC(=O)[C@H](CC(=O)O)NC(=O)CNC(=O)[C@H](CCCNC(=N)N)NC2=O)NC(=O)[C@@H](Cc2ccccc2)NC(=O)[C@H](CC(=O)O)NC(=O)CNC1=O (stereo partly drawn) [Example S72],solubility at 30 min,[1],> 30 mg/mL
same,improvement of water solubility compared with carboplatin,[1],~1 fold
CC(=O)N[C@@H](CCCNC(=N)N)C(=O)NCC(=O)N[C@@H](CC(=O)O)C(=O)NCCSC1CC(=O)N(CCCCCC(=O)NN=C2CC3(C2)C(=O)[O][Pt]([NH2])([NH2])[O]C3=O)C1=O (stereo partly drawn) [Example S70],Tumor inhibition rate %,"[2]; dose 80, Ip",52.3%
same,Tumor weight (g) X ± SD,"[2]; dose 80, Ip",0.92 ± 0.20 g
same,Tumor inhibition rate %,"[2]; dose 160, Ip",70.8%
same,Tumor weight (g) X ± SD,"[2]; dose 160, Ip",0.56 ± 0.17 g
same,Tumor inhibition rate %,"[2]; dose 240, Ip",84.6%
same,Tumor weight (g) X ± SD,"[2]; dose 240, Ip",0.30 ± 0.14 g
same,inhibitory effect on growth of S180 sarcoma of mice (in words),[2]; compared with carboplatin at equimolar concentrations,more obvious ability to inhibit the growth of transplanted tumor S180 than the clinical drug carboplatin; also recorded: significantly better than carboplatin
N=C(N)NCCC[C@@H]1NC(=O)[C@@H](CCCCNC(=O)CCOCCOCCOCCOCCNC(=O)CC[C@H](NC(=O)CCSC2CC(=O)N(CC3CCC(C(=O)NN=C4CC(C(=O)O)(C(=O)O)C4)CC3)C2=O)C(=O)NCCOCCOCCOCCOCCC(=O)NCCCC[C@H]2NC(=O)[C@@H](Cc3ccccc3)NC(=O)[C@H](CC(=O)O)NC(=O)CNC(=O)[C@H](CCCNC(=N)N)NC2=O)NC(=O)[C@@H](Cc2ccccc2)NC(=O)[C@H](CC(=O)O)NC(=O)CNC1=O (stereo partly drawn) [Example S95],solubility,[1],> 30 mg/mL
N=C(N)NCCC[C@@H]1NC(=O)[C@@H](CCCCNC(=O)CCOCCOCCOCCOCCNC(=O)CC[C@H](NC(=O)CCSC2CC(=O)N(CCOCCOCCC(=O)NN=C3CC4(C3)C(=O)[O][Pt]([NH2])([NH2])[O]C4=O)C2=O)C(=O)NCCOCCOCCOCCOCCC(=O)NCCCC[C@H]2NC(=O)[C@@H](Cc3ccccc3)NC(=O)[C@H](CC(=O)O)NC(=O)CNC(=O)[C@H](CCCNC(=N)N)NC2=O)NC(=O)[C@@H](Cc2ccccc2)NC(=O)[C@H](CC(=O)O)NC(=O)CNC1=O (stereo partly drawn) [Example S80],solubility at 30 min,[1],> 30 mg/mL
same,improvement of water solubility compared with carboplatin,[1],~1 fold
"[NH2][Pt]1([NH2])[O]C(=O)C2(CCC2)C(=O)[O]1 [carboplatin, reference compound]",solubility at 30 min,[1],16.6 mg/mL
same,water solubility,[3],17.0 mg/mL
N=C(N)NCCC[C@@H]1NC(=O)[C@@H](CCCCNC(=O)CCOCCOCCOCCOCCNC(=O)CC[C@H](NC(=O)CCSCC2=CCC(=O)N2CC2CCC(C(=O)NN=C3CC(C(=O)O)(C(=O)O)C3)CC2)C(=O)NCCOCCOCCOCCOCCC(=O)NCCCC[C@H]2NC(=O)[C@@H](Cc3ccccc3)NC(=O)[C@H](CC(=O)O)NC(=O)CNC(=O)[C@H](CCCNC(=N)N)NC2=O)NC(=O)[C@@H](Cc2ccccc2)NC(=O)[C@H](CC(=O)O)NC(=O)CNC1=O (stereo partly drawn) [Example S97],solubility,[1],30 mg/mL
